Literature values as cited in patent US4448730A, “Hydroxybenzohydroxamic acids, benzamides and esters and related compounds as ribonucleotide reductase inhibitors” (priority 1982, dated 1984).

Experiments:
L1210 leukemia = settings: National Cancer Institute; cited from earlier work
[1] = Biochemical Pharmacology 1971; cited from earlier work
[2] = tested on: RNA and protein synthesis in Ehrlich ascites tumor cells; settings: Gale and Hynes 1968; cited from earlier work
[3] = tested on: DNA synthesis in Ehrlich ascites tumor cells; settings: Gale and Hynes 1968; in vitro; cited from earlier work
[4] = tested on: DNA, RNA and protein synthesis in cells; settings: cited from earlier work

In the case of `O=C(NO)c1ccc(O)cc1` [4-hydroxybenzoylhydroxamic acid], the “antitumor activity in vivo against L1210 leukemia (in words)” value (L1210 leukemia) is listed as “significant antitumor activity in vivo” and the “antimitogenic activity (in words)” value [1] is listed as “most active compounds tested”.
For `O=C(NO)c1ccccc1` [Benzohydroxamic acid], the “inhibition of RNA synthesis (in words)” value [2] is listed as “found to inhibit RNA synthesis”.
In the case of `O=C(NO)c1ccccc1O` [salicylhydroxamic acid], the “inhibition of / selectivity against DNA synthesis (in words)” value [3] is listed as “selective inhibition of DNA synthesis”, the “inhibition of DNA synthesis (in words)” value ([4]; Gale 1966) is listed as “selective inhibition of DNA synthesis” and the “depression of RNA and protein synthesis (in words)” value ([4]; cells preincubated for up to two hours) is listed as “only a slight depression of RNA and protein synthesis”.
